From patent publication US7250521B2, “Method for production of Δ1-pyrrolines” (Bayer CropScience Aktiengesellschaft, priority 2001, dated 2007)

Assay: logP determination by HPLC on reverse-phase column (C 18), EEC directive 79/831 Annex V.A8
Assay type: physicochemical
Method: In the acidic range, the determination is carried out at pH 2.3 using the mobile phases 0.1% aqueous phosphoric acid and acetonitrile; linear gradient from 10% acetonitrile to 90% acetonitrile.
In the neutral range, the determination is carried out at pH 7.5 using the mobile phases 0.01 molar aqueous phosphate buffer solution and acetonitrile; linear gradient from 10% acetonitrile to 90% acetonitrile.

[1] = reverse-phase HPLC column (C 18), pH 2.3, acidic range, pH 2.3; 0.1% aqueous phosphoric acid/acetonitrile gradient; 43° C.; values marked a)
[2] = reverse-phase HPLC column (C 18), pH 7.5, neutral range, pH 7.5; 0.01 molar aqueous phosphate buffer/acetonitrile gradient; 43° C.; values marked b)

Structure (SMILES) | chromatographic logP [1] | chromatographic logP [2]
Cc1cc(Cl)ccc1C1CCC(c2cc(Cl)ccc2Cl)=N1 (centres unmarked) [Example 61] | 5.03 | 5.33
Fc1ccc(C2CCC(c3ccccc3F)=N2)cc1F (centres unmarked) [Example 63] | 1.74 | 3.74
Fc1ccc(C2CCC(c3ccc(C(F)(F)F)cc3)=N2)cc1 (centres unmarked) [Example 64] | 2.73 | 4.2
Fc1ccc(C2CCC(c3ccc(OC(F)(F)F)cc3)=N2)cc1 (centres unmarked) [Example 65] | 2.23 | 4.31
FC(F)(F)Oc1ccc(C2=NC(c3ccccc3)CC2)cc1 (centres unmarked) [Example 66] | 2.02 | 4.26
Clc1ccccc1C1=NC(c2ccc(C3CCCCC3)cc2)CC1 (centres unmarked) [Example 67] |  | 6.04
Clc1cccc(C2=NC(c3ccccc3)CC2)c1Cl (centres unmarked) [Example 69] |  | 4.07
Clc1ccccc1C1=NC(c2ccc(CCc3ccccc3)cc2)CC1 (centres unmarked) [Example 70] | 3.47 | 5.33
Brc1ccc(C2=NC(c3ccccc3)CC2)cc1 (centres unmarked) [Example 72] | 1.59 | 4.06
Fc1cccc(F)c1C1=NC(c2ccc(OC(F)(F)F)cc2)CC1 (centres unmarked) [Example 73] |  | 4.13
Cc1ccc(C2CCC(c3ccccc3Cl)=N2)cc1 (centres unmarked) [Example 74] | 1.96 | 4.04
CC(=O)c1ccc(C2CCC(c3ccccc3Cl)=N2)cc1 (centres unmarked) [Example 75] | 1.88 | 3.06
Fc1ccccc1C1=NC(c2ccccc2)CC1 (centres unmarked) [Example 76] | 1.16 | 3.45
Brc1ccccc1C1=NC(c2ccc(C3CCCCC3)cc2)CC1 (centres unmarked) [Example 77] | 4.23 | 6.03
Fc1cccc(F)c1C1=NC(c2ccc(C3CCCCC3)cc2)CC1 (centres unmarked) [Example 78] | 3.84 | 5.56
Cc1ccc(C2CCC(c3ccccc3Br)=N2)cc1 (centres unmarked) [Example 81] | 2.17 | 4.07
Clc1ccc(C2CCC(c3ccccc3Cl)=N2)cc1 (centres unmarked) [Example 82] | 2.6 | 4.23
CC(=O)c1ccc(C2CCC(c3ccccc3Br)=N2)cc1 (centres unmarked) [Example 84] | 2.14 | 3.09
CSc1ccc(C2CCC(c3ccccc3F)=N2)cc1 (centres unmarked) [Example 85] | 1.62 | 3.88

Structure (SMILES) | chromatographic logP [1] | chromatographic logP [2]
COc1ccc(C2CCC(c3ccccc3Cl)=N2)cc1 (centres unmarked) [Example 86] | 1.66 | 3.47
Brc1ccccc1C1=NC(c2ccc(CCc3ccccc3)cc2)CC1 (centres unmarked) [Example 88] | 3.77 | 5.35
Clc1ccccc1C1=NC(c2ccc(Br)cc2)CC1 (centres unmarked) [Example 89] | 2.76 | 4.36
Clc1ccccc1C1=NC(c2ccccc2)CC1 (centres unmarked) [Example 91] | 1.64 | 3.61
Clc1ccc(C2=NC(c3ccc(Br)cc3)CC2)cc1 (centres unmarked) [Example 92] | 2.17 | 
Cc1ccccc1C1=NC(c2ccccc2)CC1 (centres unmarked) [Example 94] | 1.29 | 3.7
Fc1ccc(C2CCC(c3ccccc3Cl)=N2)cc1 (centres unmarked) [Example 95] | 2 | 3.68
CCOC(=O)Oc1ccc(-c2ccc(C3CCC(c4ccccc4Cl)=N3)cc2)cc1 (centres unmarked) [Example 96] | 3.14 | 
Fc1ccccc1C1=NC(c2ccc(Br)cc2)CC1 (centres unmarked) [Example 97] | 1.83 | 
Brc1ccc(C2CCC(c3ccccc3Br)=N2)cc1 (centres unmarked) [Example 98] | 3.11 | 
FC(F)(F)Oc1ccc(-c2ccc(C3CCC(c4ccc(Br)cc4)=N3)cc2)cc1 (centres unmarked) [Example 101] | 3.51 | 5.95
FC(F)(F)Oc1ccc(C2=NC(c3cccc(Cl)c3)CC2)cc1 (centres unmarked) [Example 105] | 4.87 | 
Fc1cccc(F)c1C1=NC(c2ccc(OCc3ccc(C(F)(F)F)cc3)cc2)CC1 (centres unmarked) [Example 108] | 3.41 | 
Cc1cc(-c2ccc(C3CCC(c4c(F)cccc4F)=N3)cc2)ccc1OC(F)(F)F (centres unmarked) [Example 112] | 4.57 | 
Fc1cccc(F)c1C1=NC(c2ccc(-c3ccc(Br)cc3)cc2)CC1 (centres unmarked) [Example 113] | 3.98 | 
Fc1cc(F)c(C2=NC(c3ccc(-c4ccc(SC(F)(F)F)cc4)cc3)CC2)c(F)c1 (centres unmarked) [Example 114] | 5.05 | 
Fc1ccc(F)c(C2=NC(c3ccc(-c4ccc(SC(F)(F)F)cc4)cc3)CC2)c1F (centres unmarked) [Example 115] | 5.46 | 
Fc1cc(F)c(C2=NC(c3ccc(-c4ccc(OC(F)(F)F)cc4)cc3)CC2)c(F)c1 (centres unmarked) [Example 117] | 4.57 | 
Fc1ccc(F)c(C2=NC(c3ccc(-c4ccc(OC(F)(F)F)cc4)cc3)CC2)c1F (centres unmarked) [Example 118] | 5.05 | 

Other lines, results leading:

chromatographic logP [1] | chromatographic logP [2] | Structure (SMILES)
3.36 | 4.69 | Cc1ccc(C2CCC(c3ccccc3Br)=N2)cc1Cl (centres unmarked) [Example 62]
 | 4.41 | Fc1ccccc1C1=NC(c2ccc(OC(F)(F)F)cc2)CC1 (centres unmarked) [Example 68]
2.82 | 4.45 | Cc1ccc(C2CCC(c3ccccc3Cl)=N2)c(C)c1 (centres unmarked) [Example 71]
2.86 | 5.95 | Fc1ccccc1C1=NC(c2ccc(C3CCCCC3)cc2)CC1 (centres unmarked) [Example 79]
2.55 | 4.46 | Cc1ccc(C2CCC(c3ccccc3Br)=N2)c(C)c1 (centres unmarked) [Example 80]
2.96 | 4.22 | Clc1ccc(C2CCC(c3ccccc3Br)=N2)cc1 (centres unmarked) [Example 83]
1.21 | 3.32 | COc1ccc(C2CCC(c3ccccc3F)=N2)cc1 (centres unmarked) [Example 87]
1.43 |  | Clc1ccc(C2=NC(c3ccccc3)CC2)cc1 (centres unmarked) [Example 90]
1.75 |  | Fc1cccc(F)c1C1=NC(c2ccccc2)CC1 (centres unmarked) [Example 93]
2.18 |  | Fc1ccc(C2CCC(c3ccccc3Br)=N2)cc1 (centres unmarked) [Example 99]
1.73 | 4.14 | Fc1ccc(C2CCC(c3ccc(Br)cc3)=N2)cc1 (centres unmarked) [Example 100]
4.52 | 5.56 | FC(F)(F)Oc1ccc(-c2ccc(C3CCC(c4ccccc4Br)=N3)cc2)cc1 (centres unmarked) [Example 102]
3.26 |  | CC(C)Oc1cc(-c2ccccc2)ccc1C1CCC(c2ccccc2Cl)=N1 (centres unmarked) [Example 103]
0.59 |  | Oc1ccc(C2CCC(c3ccccc3F)=N2)cc1 (centres unmarked) [Example 104]
0.91 |  | Oc1ccc(C2CCC(c3c(F)cccc3F)=N2)cc1 (centres unmarked) [Example 106]
3.26 |  | Fc1cccc(F)c1C1=NC(c2ccc(OCc3ccc(Cl)cc3)cc2)CC1 (centres unmarked) [Example 107]
3.61 |  | Fc1cccc(F)c1C1=NC(c2ccc(OCc3ccc(OC(F)(F)F)cc3)cc2)CC1 (centres unmarked) [Example 109]
2.14 |  | CC(C)Oc1ccc(C2CCC(c3c(F)cccc3F)=N2)cc1 (centres unmarked) [Example 110]
4.55 |  | Cc1cc(OC(F)(F)F)ccc1-c1ccc(C2CCC(c3c(F)cccc3F)=N2)cc1 (centres unmarked) [Example 111]
2.94 |  | COc1ccc(C2=NC(c3ccc(-c4ccc(OC(F)(F)F)cc4)cc3)CC2)cc1 (centres unmarked) [Example 116]
